In patent publication US20240067693A1, “POLYPEPTIDES AND USES THEREOF” (MEDIMMUNE LIMITED, priority 2020, published 2024):
Numbered stars: 1 amine (or outer) side, 2 acyl side, 3 side chain; on linkers, the order of the positions; unused ones are H or OH. Bridge positions count the residues as written; N and C are the ends. Square brackets hold non-standard residues; d marks the D form. Side chains are listed from the residue outwards. Peptide text beside a SMILES is read from it. * marks the point of attachment. C18 diacid = O=C(O)CCCCCCCCCCCCCCCCC(=O)*; γGlu = O=C(O)[C@H](CCC(=O)[*:2])N[*:1]; αMeF = C[C@](N)(Cc1ccccc1)C(=O)O; Dab = NCC[C@H](N)C(=O)O; AEEA = NCCOCCOCC(=O)O; Aib = CC(C)(N)C(=O)O

What was measured:
[1] = biological target: T1, human amylin receptor (calcitonin receptor co-expressed with receptor activity modifying protein, RAMP3) (hAMYR3) (Homo sapiens, UniProt O60896+P30988); assay: cAMP production in 1321N1 cells with stable recombinant expression of human amylin receptor (hAMYR3); assay type: cell-based; conditions: for Ratio (selectivity hAMYR vs hCTR, ratio of EC50 values at the two receptors): EC50 hCTR / EC50 hAMYR3; for EC50: cAMP, 1321N1 cells, assay buffer with 0.1% BSA, read-out: EC50 (pM) hAMYR3
T1 construct: expressed in transfected cells
T1 sequence (P30988 25-474): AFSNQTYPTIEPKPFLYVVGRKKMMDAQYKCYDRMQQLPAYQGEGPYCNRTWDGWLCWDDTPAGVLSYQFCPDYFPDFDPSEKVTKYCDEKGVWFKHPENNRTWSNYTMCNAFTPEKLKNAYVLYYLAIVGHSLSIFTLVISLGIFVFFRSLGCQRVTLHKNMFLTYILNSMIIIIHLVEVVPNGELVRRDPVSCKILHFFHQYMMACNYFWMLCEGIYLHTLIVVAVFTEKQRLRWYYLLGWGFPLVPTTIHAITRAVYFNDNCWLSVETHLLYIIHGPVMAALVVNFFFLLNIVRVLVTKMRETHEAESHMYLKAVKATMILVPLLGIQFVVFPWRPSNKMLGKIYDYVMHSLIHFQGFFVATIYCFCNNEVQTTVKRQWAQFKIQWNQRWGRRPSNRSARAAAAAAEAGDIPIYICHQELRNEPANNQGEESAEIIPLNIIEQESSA
T1 sequence (O60896 24-148 partner): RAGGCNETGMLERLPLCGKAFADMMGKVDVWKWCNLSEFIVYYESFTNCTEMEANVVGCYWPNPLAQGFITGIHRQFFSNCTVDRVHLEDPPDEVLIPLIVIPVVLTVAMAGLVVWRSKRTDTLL
Experimental: (§1) The functional activities of lipidated pramlintide analogue peptides, such as cAMP production, were tested in 1321N1 cell line with stable recombinant expression of human calcitonin receptor (hCTR) or human amylin receptor (calcitonin receptor co-expressed with receptor activity modifying protein, RAMP3) (hAMYR3) or HEK cells with stable recombinant expression of rat calcitonin receptor (rat CTR) or rat amylin receptor (calcitonin receptor co-expressed with receptor activity modifying protein, RAMP3) (Rat AMYR3).
(§2) Cryopreserved cell stock was thawed rapidly in a water-bath, suspended in assay buffer (0.1% BSA (Sigma # A3059) in HBSS (Sigma # H8264) with 25 mM HEPES, pH 7.4 and containing 0.5 mM IB MX (Sigma# 17018)) and spun at 240×g for 5 minutes. Cells were re-suspended in assay buffer at a batch-dependent optimized concentration (e.g. hCTR cells at 0.125×10^5 cells/mL, hAMYR3 cells at 0.125×10^5 cells/mL, rat CTR cells at 1x10^5 cells/mL, rat AMYR3 at 2×10^5 cells/mL).
(§3) The test peptide stock was prepared in DMSO and diluted in assay buffer to reach stated concentrations and transferred in duplicates into a 384-black shallow well microtitre assay plate (Corning # 3676). Cells were added to the assay plate, incubated at room temperature for 30 minutes and the cAMP level measured using cAMP dynamic 2 HTRF kit (Cisbio, Cat # 62AM4PEJ), following the two step protocol as per manufacturer's recommendations. The plates were read on an Envision (Perkin Elmer) using excitation wavelength of 320 nm and emission wavelengths of 620nm & 665 nm.
(§4) Data was transformed to % Delta F as described in the manufacturer's guidelines and analyzed as percent activation of maximal amylin or calcitonin effect by 4-parameter logistic fit to determine EC50 values. The selectivity of a peptide to hAMYR vs hCTR is defined as a ratio of EC50 values at the two receptors.

[2] = biological target: T2, human calcitonin receptor (hCTR) (Homo sapiens, UniProt P30988); assay: cAMP production in 1321N1 cells with stable recombinant expression of human calcitonin receptor (hCTR); assay type: cell-based; conditions: cAMP, 1321N1 cells, assay buffer with 0.1% BSA; read-out: EC50 (pM) hCTR
T2 construct: expressed in transfected cells
T2 sequence (P30988 25-474): T1 sequence (P30988 25-474)
Experimental: as §1, §2, §3, §4

Compound | Ratio (selectivity hAMYR vs hCTR, ratio of EC50 values at the two receptors) [1] | EC50 [1] [pM] | EC50 [2] [pM]
CC[C@H](C)[C@H](NC(=O)[C@@H]1CCCN1C(=O)CNC(=O)[C@H](Cc1ccccc1)NC(=O)[C@H](CC(N)=O)NC(=O)C(C)(C)NC(=O)[C@H](CO)NC(=O)[C@H](CO)NC(=O)[C@H](Cc1c[nH]cn1)NC(=O)[C@@H](NC(=O)[C@H](CC(C)C)NC(=O)[C@H](Cc1ccccc1)NC(=O)[C@H](CC(N)=O)NC(=O)[C@H](C)NC(=O)[C@H](CC(C)C)NC(=O)[C@H](CCCNC(=N)N)NC(=O)[C@H](CCC(N)=O)NC(=O)[C@@H](NC(=O)[C@H](C)NC(=O)[C@@H]1CSSC[C@H](NC(=O)[C@H](CCCCN)NC(=O)[C@@H](N)CCCCNC(=O)CC[C@H](NC(=O)CCCCCCCCCCCCCCCCC(=O)O)C(=O)O)C(=O)N[C@@H](CC(N)=O)C(=O)N[C@@H]([C@@H](C)O)C(=O)N[C@@H](C)C(=O)N[C@@H]([C@@H](C)O)C(=O)N1)[C@@H](C)O)C(C)C)C(=O)N[C@@H](CC(C)C)C(=O)N1CCC[C@H]1C(=O)N1CCC[C@H]1C(=O)N[C@H](C(=O)N[C@@H](CC(N)=O)C(=O)N[C@H](C(=O)NCC(=O)N[C@@H](CO)C(=O)N[C@@H](CC(N)=O)C(=O)N[C@H](C(=O)N1CCC[C@H]1C(N)=O)[C@@H](C)O)C(C)C)[C@@H](C)O [Peptide 58, K(γE-C18diacid)K[CNTATC]ATQRLANFLVHSS(Aib)NFGPILPPTNVGSNTP-amide] (H-K([γGlu-C18 diacid])KCNTATCATQRLANFLVHSS[Aib]NFGPILPPTNVGSNTP-NH2; disulfide 3-8) | 1 | 71 | 65
CC[C@H](C)[C@H](NC(=O)[C@@H]1CCCN1C(=O)CNC(=O)[C@H](Cc1ccccc1)NC(=O)[C@H](CC(N)=O)NC(=O)C(C)(C)NC(=O)[C@H](CO)NC(=O)[C@H](CO)NC(=O)[C@H](Cc1c[nH]cn1)NC(=O)[C@H](CCCNC(=N)N)NC(=O)[C@H](CC(C)C)NC(=O)[C@H](Cc1ccccc1)NC(=O)[C@H](CC(N)=O)NC(=O)[C@H](C)NC(=O)[C@H](CC(C)C)NC(=O)[C@H](CCCNC(=N)N)NC(=O)[C@H](CCC(N)=O)NC(=O)[C@@H](NC(=O)[C@H](C)NC(=O)[C@@H]1CSSC[C@H](NC(=O)[C@@H](N)CCCCNC(=O)COCCOCCNC(=O)COCCOCCNC(=O)CC[C@H](NC(=O)CCCCCCCCCCCCCCCCC(=O)O)C(=O)O)C(=O)N[C@@H](CC(N)=O)C(=O)N[C@@H]([C@@H](C)O)C(=O)N[C@@H](C)C(=O)N[C@@H]([C@@H](C)O)C(=O)N1)[C@@H](C)O)C(=O)N[C@@H](CC(C)C)C(=O)N1CCC[C@H]1C(=O)N1CCC[C@H]1C(=O)N[C@H](C(=O)N[C@@H](CCC(=O)O)C(=O)N[C@H](C(=O)NCC(=O)N[C@@H](CO)C(=O)N[C@@H](CC(N)=O)C(=O)N[C@H](C(=O)N[C@@H](Cc1ccc(O)cc1)C(N)=O)[C@@H](C)O)C(C)C)[C@@H](C)O [Peptide 45, K(O2Oc-O2Oc-γE-C18diacid)[CNTATC]ATQRLANFLRHSS(Aib)NFGPILPPTEVGSNTY-amide] (H-K([AEEA-AEEA-γGlu-C18 diacid])CNTATCATQRLANFLRHSS[Aib]NFGPILPPTEVGSNTY-NH2; disulfide 2-7; N-terminus assumed) | 29 | 588 | 16900
CC[C@H](C)[C@H](NC(=O)[C@@H]1CCCN1C(=O)CNC(=O)[C@H](Cc1ccccc1)NC(=O)[C@H](CC(N)=O)NC(=O)[C@H](CC(N)=O)NC(=O)[C@H](CO)NC(=O)[C@H](CO)NC(=O)[C@H](Cc1c[nH]cn1)NC(=O)C(C)(C)NC(=O)[C@H](CC(C)C)NC(=O)[C@H](Cc1ccccc1)NC(=O)[C@H](CC(N)=O)NC(=O)[C@H](C)NC(=O)[C@H](CC(C)C)NC(=O)[C@H](CCCNC(=N)N)NC(=O)[C@H](CCC(N)=O)NC(=O)[C@@H](NC(=O)[C@H](C)NC(=O)[C@@H]1CSSC[C@H](NC(=O)[C@@H](N)CCCCNC(=O)CC[C@H](NC(=O)CC[C@H](NC(=O)CCCCCCCCCCCCCCCCC(=O)O)C(=O)O)C(=O)O)C(=O)N[C@@H](CC(N)=O)C(=O)N[C@@H]([C@@H](C)O)C(=O)N[C@@H](C)C(=O)N[C@@H]([C@@H](C)O)C(=O)N1)[C@@H](C)O)C(=O)N[C@@H](CC(C)C)C(=O)N1CCC[C@H]1C(=O)N1CCC[C@H]1C(=O)N[C@H](C(=O)N[C@@H](CC(N)=O)C(=O)N[C@H](C(=O)NCC(=O)N[C@@H](CO)C(=O)N[C@@H](CC(N)=O)C(=O)N[C@H](C(=O)N[C@@H](Cc1ccc(O)cc1)C(N)=O)[C@@H](C)O)C(C)C)[C@@H](C)O [Peptide 127] (H-K([γGlu-γGlu-C18 diacid])CNTATCATQRLANFL[Aib]HSSNNFGPILPPTNVGSNTY-NH2; disulfide 2-7; N-terminus assumed) | 19.6 | 364 | 7130
CC[C@H](C)[C@H](NC(=O)[C@@H]1CCCN1C(=O)CNC(=O)[C@](C)(Cc1ccccc1)NC(=O)[C@H](CC(N)=O)NC(=O)[C@H](CC(N)=O)NC(=O)[C@H](CO)NC(=O)[C@H](CO)NC(=O)[C@H](Cc1c[nH]cn1)NC(=O)[C@@H](NC(=O)[C@H](CC(C)C)NC(=O)[C@H](Cc1ccccc1)NC(=O)[C@H](CCN)NC(=O)[C@H](C)NC(=O)[C@H](CC(C)C)NC(=O)[C@H](CCCNC(=N)N)NC(=O)[C@H](CCC(N)=O)NC(=O)[C@@H](NC(=O)[C@H](C)NC(=O)[C@@H]1CSSC[C@H](NC(=O)[C@H](CCCCN)NC(=O)[C@@H](N)CCCCNC(=O)CC[C@H](NC(=O)CCCCCCCCCCCCCCCCC(=O)O)C(=O)O)C(=O)N[C@@H](CC(N)=O)C(=O)N[C@@H]([C@@H](C)O)C(=O)N[C@@H](C)C(=O)N[C@@H]([C@@H](C)O)C(=O)N1)[C@@H](C)O)C(C)C)C(=O)N[C@@H](CC(C)C)C(=O)N1CCC[C@H]1C(=O)N1CCC[C@H]1C(=O)N[C@H](C(=O)N[C@@H](CCC(=O)O)C(=O)N[C@H](C(=O)NCC(=O)N[C@@H](CO)C(=O)N[C@@H](CC(N)=O)C(=O)N[C@H](C(=O)N[C@@H](Cc1ccc(O)cc1)C(N)=O)[C@@H](C)O)C(C)C)[C@@H](C)O [Peptide 32, K(γE-C18diacid)K[CNTATC]ATQRLA(Dab)FLVHSSNN(αMePhe)GPILPPTEVGSNTY-amide] (H-K([γGlu-C18 diacid])KCNTATCATQRLA[Dab]FLVHSSNN[αMeF]GPILPPTEVGSNTY-NH2; disulfide 3-8; N-terminus assumed) | 15 | 742 | 11100
CC[C@H](C)[C@H](NC(=O)[C@@H]1CCCN1C(=O)CNC(=O)[C@H](Cc1ccccc1)NC(=O)[C@H](CC(N)=O)NC(=O)[C@H](Cc1c[nH]cn1)NC(=O)[C@H](CO)NC(=O)[C@H](CO)NC(=O)[C@H](Cc1c[nH]cn1)NC(=O)C(C)(C)NC(=O)[C@H](CC(C)C)NC(=O)[C@H](Cc1ccccc1)NC(=O)[C@H](CC(N)=O)NC(=O)[C@H](C)NC(=O)[C@H](CC(C)C)NC(=O)[C@H](CCCNC(=N)N)NC(=O)[C@H](CCC(N)=O)NC(=O)[C@@H](NC(=O)[C@H](C)NC(=O)[C@@H]1CSSC[C@H](NC(=O)[C@H](CCCCN)NC(=O)[C@@H](N)CCCCNC(=O)CC[C@H](NC(=O)CCCCCCCCCCCCCCCCC(=O)O)C(=O)O)C(=O)N[C@@H](CC(N)=O)C(=O)N[C@@H]([C@@H](C)O)C(=O)N[C@@H](C)C(=O)N[C@@H]([C@@H](C)O)C(=O)N1)[C@@H](C)O)C(=O)N[C@@H](CC(C)C)C(=O)N1CCC[C@H]1C(=O)N1CCC[C@H]1C(=O)N[C@H](C(=O)N[C@@H](CC(N)=O)C(=O)N[C@H](C(=O)NCC(=O)N[C@@H](CO)C(=O)N[C@@H](CC(N)=O)C(=O)N[C@H](C(=O)N[C@@H](Cc1ccc(O)cc1)C(N)=O)[C@@H](C)O)C(C)C)[C@@H](C)O [Peptide 131] (H-K([γGlu-C18 diacid])KCNTATCATQRLANFL[Aib]HSSHNFGPILPPTNVGSNTY-NH2; disulfide 3-8) | 20.5 | 737 | 15100
